Assay [1] relates to Staphylococcus aureus SG 511. The assay can be described thus: Serial dilution test in the microtiter system, MIC against S. aureus SG 511. Type of assay: cell-based. The settings on record: SG511, minimum inhibitory concentration, 37° C., 18 to 20 hours. Here is the method: (§1) The tests were performed using the serial dilution test in the microtiter system. The effect of the test compounds on bacteriostasis was examined at the following concentrations: 80, 40, 20, 10, 5, 2.5, 1.25, 0.6, 0.3, 0.08 and 0.02 μgm/ml. The nutrient medium consisted of 10 gm of peptone, 8 gm of meat extract oxoid, 3 gm of sodium chloride, and 2 gm of sec. sodium phosphate diluted with distilled water to […] (pH 7.2-7.4). Only in the test against streptococci 1% of glucose was added. The age of the primary cultures was approximately 20 hours. The standardization of the bacteria suspension was effected using a photometer according to the method of Eppendorf (test tube .phi. 14 mm, filter 546 nm), using for comparison a barium sulfate suspension formed by the addition of 3.0 ml of 1% barium chloride solution to 97 ml of 1% sulfuric acid. After the standardization,Streptococcus aronson was further diluted to a concentration of 1:15, and the other bacteria to a concentration of 1:1500, using a sodium chloride solution.
(§2) 16 mgm of the particular test compound were put into a 10 ml measuring flask, and the flask was subsequently filled to the mark with solvent. The further dilution series was standardized with distilled water or the appropriate solvent.
(§3) The cavities of the microtiter plates were filled with 0.2 ml of nutrient medium. 0.01 ml of the appropriate test compound solution was then added, followed by inoculation with 0.01 ml of the standardized bacteria suspension. The bacteria were incubated at 37° C. for 18 to 20 hours. Control tests using only the solvent were carried out simultaneously.
(§4) The measurement was carried out macroscopically to determine the minimum inhibitory concentration (the lowest still bacteriostatically effective concentration).
(§5) The following test organisms were used:
(§6) Staphylococcus aureus SG 511, St. aureus E 88 (β-lactamase carrier), Escherichia coli ATCC 11 775, Pseudomonas aeruginosa Hamburgensis and Pseudomonas aeruginosa Walter, Serratia macrescens ATCC 13 880, Klebsiella pneumoniae ATCC 10 031 and 272, Proteus mirabilis Hamburgensis, Proteus rettgeri Eb. cloaceae ATCC 13047, and E. coli R+TEM (β-lactamase carrier).
(§7) The following tables show the determined minimum inhibitory concentrations (MIC) for a few representative compounds (E=Na) of the present invention, and two known cephalosporins for comparison: […]

Assay [2] concerns St. aureus E 88. The assay can be described thus: Serial dilution test in the microtiter system, MIC against S. aureus E 88 (β-lactamase carrier). It is filed as cell-based. The settings on record: Staphylococcus aureus, E88, minimum inhibitory concentration, 37° C., 18 to 20 hours. Here is the method:
as §1, §2, §3, §4, §5, §6, §7

Assay [3] concerns Escherichia coli ATCC 11 775. The assay can be described thus: Serial dilution test in the microtiter system, MIC against E. coli ATCC 11775. It is filed as cell-based. The settings on record: minimum inhibitory concentration, 37° C., 18 to 20 hours. Here is the method:
as §1, §2, §3, §4, §5, §6, §7

Assay [4] concerns Pseudomonas aeruginosa Hamburgensis. The assay can be described thus: Serial dilution test in the microtiter system, MIC against Pseudomonas aeruginosa Hamburgensis. Type of assay: cell-based. The settings on record: minimum inhibitory concentration, 37° C., 18 to 20 hours, read-out: MIC, Pseud. aerug. Hbg. As to the method: as §1, §2, §3, §4, §5, §6, §7
The test system of assay [5] is Pseudomonas aeruginosa Walter. Briefly: Serial dilution test in the microtiter system, MIC against Pseudomonas aeruginosa Walter. Type of assay: cell-based. The settings on record: minimum inhibitory concentration, 37° C., 18 to 20 hours, read-out: MIC, Pseud. aerug. Walter. Here is the method:
as §1, §2, §3, §4, §5, §6, §7

The test system of assay [6] is Klebsiella pneumoniae ATCC 10 031. Briefly: Serial dilution test in the microtiter system, MIC against Klebsiella pneumoniae ATCC 10031. Type of assay: cell-based. Particulars: minimum inhibitory concentration, 37° C., 18 to 20 hours, read-out: MIC, Klebs. pneum. ATCC 10031. As to the method: as §1, §2, §3, §4, §5, §6, §7
The subject of assay [7] is Klebsiella pneumoniae 272. Briefly: Serial dilution test in the microtiter system, MIC against Klebsiella pneumoniae 272. It is filed as cell-based. Particulars: minimum inhibitory concentration, 37° C., 18 to 20 hours, read-out: MIC, Klebs. pneum. 272. Here is the method: as §1, §2, §3, §4, §5, §6, §7
Assay [8] concerns Proteus mirabilis Hamburgensis. Briefly: Serial dilution test in the microtiter system, MIC against Proteus mirabilis Hamburgensis. Particulars: minimum inhibitory concentration, 37° C., 18 to 20 hours, read-out: MIC, Prot. Mir. Hbg. Type of assay: cell-based. As to the method:
as §1, §2, §3, §4, §5, §6, §7

Assay [9] relates to Proteus rettgeri. The assay can be described thus: Serial dilution test in the microtiter system, MIC against Proteus rettgeri. It is filed as cell-based. Particulars: Providencia rettgeri; minimum inhibitory concentration; 37° C., 18 to 20 hours; read-out: MIC, Prot. rettg. Here is the method: as §1, §2, §3, §4, §5, §6, §7
Assay [10] deals with Eb. cloaceae ATCC 13047. Briefly: Serial dilution test in the microtiter system, MIC against Eb. cloaceae ATCC 13047. The settings on record: minimum inhibitory concentration; 37° C., 18 to 20 hours. It is filed as cell-based. As to the method: as §1, §2, §3, §4, §5, §6, §7
The test system of assay [11] is E. coli R+TEM. The assay can be described thus: Serial dilution test in the microtiter system, MIC against E. coli R+TEM (β-lactamase carrier). It is filed as cell-based. Particulars: Escherichia coli, read-out: MIC, E. coli R + TEM. Here is the method: as §1, §2, §3, §4, §5, §6, §7
In assay [12] the test system is Serratia macrescens ATCC 13 880. Briefly: Serial dilution test in the microtiter system, MIC against Serratia marcescens ATCC 13880. Type of assay: cell-based. Particulars: read-out: MIC, Serr. marcesc. ATCC 13880. Here is the method: as §1, §2, §3, §4, §5, §6, §7
Assay [13] has as its system E. coli ATCC 11775. Briefly: In vivo test in mice against experimental E. coli infection. Details: species or system Female NMRI mice. The settings on record: Escherichia coli, ATCC11775, sc, 168 h; subcutaneous; per dose; dose at which 50% of the animals survived; observation 7 days. As to the method:
(§8) A series of the compounds according to the invention was tested in vivo in mice against experimental infections. As pathogenic bacteria were used E. coli ATCC 11775 and Pseudomonas aeruginosa Walter. An intraperitoneal infection was induced in each mouse with 0.2 ml of a 5% mucin suspension of the bacteria corresponding of approximately 1.4×10^6 E. coli cells and 1.3×10^6 Pseudomonas cells per mouse. Female NMRI mice were used, divided into groups of 10 animals. Two groups were untreated and the remaining groups were treated with different doses of the cephalosporins to be tested to determine the ED50 (dose at which 50% of the animals survived). The groups infected with E. coli were on the first day treated with the test compound three times ([…] post infectionem) and on the second day twice. The groups with the Pseudomonas infection were on the first day treated with the test compound six times (1, 3, 5, 7, 9 and 11 hours post infectionem), and on the following two days twice.
(§9) The observation time was in both cases 7 days.

Assay [14] deals with Pseudomonas aeruginosa Walter. The assay can be described thus: In vivo test in mice against experimental Pseudomonas infection. Set-up: species or system Female NMRI mice. Particulars: Pseudomonas aeruginosa, sc, 168 h; subcutaneous; per dose; dose at which 50% of the animals survived; observation 7 days. Here is the method: as §8, §9

Each structure is given as a SMILES string. In brackets after ≈: the same amount, converted by molar mass. Bounds are passed on as bounds.

MIC and ED50 data for five compounds are collected here from patent US4316898A, “Cephalosporins” (Boehringer Ingelheim KG, priority 1979, dated 1982).

As for `Cn1nnnc1SCC1=C(C(=O)O)N2C(=O)[C@@H](NC(=O)[C@H](NC(=O)Nc3cnc(C4CC4)nc3O)c3ccc(O)cc3)[C@H]2SC1` [A], the minimal inhibitory concentration (MIC) (in general, the smallest concentration in the dilution series that meets the test's criterion for growth inhibition) was 0.5 µg/mL (≈ 0.764 µM) in [1]; 8 µg/mL (≈ 12.2 µM) in assay [2]; 0.5 µg/mL (≈ 0.764 µM) in [3]; 8 µg/mL (≈ 12.2 µM) in assay [4]; 8 µg/mL (≈ 12.2 µM) in [5]; 1 µg/mL (≈ 1.53 µM) in assay [6]. Besides, the minimum inhibitory concentration (MIC) was determined as 1 µg/mL (≈ 1.53 µM) in assay [7]; 0.5 µg/mL (≈ 0.764 µM) in assay [8]; 2 µg/mL (≈ 3.05 µM) in assay [9]; 2 µg/mL (≈ 3.05 µM) in assay [10]; 8 µg/mL in assay [11]; 2 µg/mL (≈ 3.05 µM) in [12]. Besides, the median effective dose (ED50) (as a rule, the dose at which the effect has come halfway, by size or by number of responders) was 1.6 mg/kg in [13] and 15.2 mg/kg in [14].

For `CCCNc1ncc(NC(=O)N[C@@H](C(=O)N[C@@H]2C(=O)N3C(C(=O)O)=C(CSc4nnnn4C)CS[C@H]23)c2ccc(O)cc2)c(O)n1` [B], the minimal inhibitory concentration (MIC) in assay [1] came to 1 µg/mL (≈ 1.49 µM); in assay [2], 8 µg/mL (≈ 11.9 µM); in assay [3], 0.5 µg/mL (≈ 0.744 µM); in [4] it was 4 µg/mL (≈ 5.95 µM); in assay [5], 8 µg/mL (≈ 11.9 µM); in assay [6], 0.5 µg/mL (≈ 0.744 µM). The MIC in [7] stood at 0.5 µg/mL (≈ 0.744 µM); in assay [8], 0.25 µg/mL (≈ 0.372 µM); in [9], 1 µg/mL (≈ 1.49 µM); in [10] it was 1 µg/mL (≈ 1.49 µM); in [11] it was 8 µg/mL; in assay [12] it was 1 µg/mL (≈ 1.49 µM). Also, the values for the median effective dose (ED50) in assay [13] and in assay [14] were 1.1 mg/kg and 12.4 mg/kg, respectively.

Turning to `Cc1nnc(SCC2=C(C(=O)O)N3C(=O)[C@@H](NC(=O)Cn4cnnn4)[C@H]3SC2)s1` [Cephazolin, reference compound], the MIC in assay [1] was 0.06 µg/mL (≈ 0.132 µM); in [2] it was 8 µg/mL (≈ 17.6 µM); in assay [3], 4 µg/mL (≈ 8.8 µM); in [4] it was more than 100 µg/mL; in assay [5], more than 100 µg/mL; in assay [6] it was 1 µg/mL (≈ 2.2 µM). Besides, the MIC is 2 µg/mL (≈ 4.4 µM) in assay [7]; 4 µg/mL (≈ 8.8 µM) in [8]; more than 100 µg/mL in assay [9]; more than 100 µg/mL in assay [10]; 4 µg/mL in assay [11]; more than 100 µg/mL in assay [12].

Turning to `CC(=O)Nc1nnc(SCC2=C(C(=O)O)N3C(=O)[C@@H](NC(=O)[C@H](NC(=O)Nc4cnc(NC5CCC(O)CC5)nc4O)c4ccc(O)cc4)[C@H]3SC2)s1` (stereo partly shown) [D], the MIC in assay [1] is 1 µg/mL (≈ 1.27 µM); in assay [2] it was 8 µg/mL (≈ 10.2 µM); in assay [3], 1 µg/mL (≈ 1.27 µM); in assay [4], 8 µg/mL (≈ 10.2 µM); in assay [5] it was 8 µg/mL (≈ 10.2 µM); in [6], 2 µg/mL (≈ 2.54 µM). The minimal inhibitory concentration (MIC) in assay [7] came to 2 µg/mL (≈ 2.54 µM); in [8], 1 µg/mL (≈ 1.27 µM); in assay [9] it was 8 µg/mL (≈ 10.2 µM); in assay [10], 8 µg/mL (≈ 10.2 µM); in assay [11], 16 µg/mL; in assay [12] it was 4 µg/mL (≈ 5.08 µM).

For `Cn1nnnc1SCC1=C(C(=O)O)N2C(=O)[C@@H](NC(=O)C(NC(=O)Nc3cnc(NC4CCC(O)CC4)nc3O)c3cccs3)[C@H]2SC1` (stereo partly shown) [F], the minimum inhibitory concentration (MIC) in [1] was found to be 1 µg/mL (≈ 1.39 µM); in assay [2], 8 µg/mL (≈ 11.1 µM); in assay [3], 0.5 µg/mL (≈ 0.697 µM); in [4] it was 16 µg/mL (≈ 22.3 µM); in assay [5] it was 16 µg/mL (≈ 22.3 µM); in assay [6], 2 µg/mL (≈ 2.79 µM). Moreover, the MIC in [7] stood at 2 µg/mL (≈ 2.79 µM); in assay [8], 0.5 µg/mL (≈ 0.697 µM); in [9], 2 µg/mL (≈ 2.79 µM); in [10], 4 µg/mL (≈ 5.57 µM); in assay [11], 16 µg/mL; in assay [12], 2 µg/mL (≈ 2.79 µM).
